ChEMBL document CHEMBL3244068 (J Med Chem, 1978)

Tests used:
[1] = Stability of the compound in acetone assessed as hydrolysis at 66 degC after 30 mins; format: physicochemical; details: 0.5 h
[2] = system: L1210; test: Antitumor activity against mouse L1210 cells assessed as dose required to produce T/C of 125% administered for 10 days; format: functional
[3] = system: L1210; test: Antitumor activity against mouse L1210 cells assessed as dose required to produce T/C of 125% administered for 15 days; format: functional
[4] = system: W256; test: Antitumor activity against rat Walker 256 cells allografted in rat; format: functional
[5] = species on record: Rattus norvegicus; test: Toxicity in rat allografted with rat Walker 256 cells; format: organism-based
[6] = Ratio of LD50 for rat allografted with rat Walker 256 cells to ED90 for rat Walker 256 cells allografted in rat
[7] = Drug metabolism assessed as log K of Holtzman rat liver esterase-mediated hydrolysis after 5 mins; format: ADME, tissue-based; details: isolated protein
[8] = system: P388; test: Antitumor activity against mouse P388 cells allografted in mouse assessed as dose required to produce T/C of 125% administered for 9 days; format: functional
[9] = system: P388; test: Antitumor activity against mouse P388 cells allografted in mouse assessed as dose required to produce T/C of 180% administered for 9 days; format: functional
[10] = system: L1210; test: Antitumor activity against mouse L1210 cells assessed as dose required to produce T/C of 125% administered for 9 days; format: functional
[11] = system: L1210; test: Antitumor activity against mouse L1210 cells assessed as dose required to produce T/C of 125% administered for 8 days; format: functional
[12] = system: P388; test: Antitumor activity against mouse P388 cells allografted in mouse assessed as dose required to produce T/C of 180% administered for 10 days; format: functional
[13] = system: P388; test: Antitumor activity against mouse P388 cells allografted in mouse assessed as dose required to produce T/C of 125% administered for 10 days; format: functional

| SMILES | log1/CED90 [4] | log1/CLD50 [5] | Ratio [6] | other results |
| --- | --- | --- | --- | --- |
| ClCCN(CCCl)c1ccc(/C=C/c2ccccc2)cc1 |  |  |  | log K [1]: -3.95; log(%) [1]: 1.26 |
| CS(=O)(=O)OCCN(CCOS(C)(=O)=O)c1ccc([N+](=O)[O-])cc1 |  |  |  | log(1/C) [2]: 3.74 |
| CC(=O)Nc1cc(N(CCOS(C)(=O)=O)CCOS(C)(=O)=O)ccc1N=O |  |  |  | log(1/C) [3]: 6.05 |
| CCOC(=O)c1ccc(N(CCOS(C)(=O)=O)CCOS(C)(=O)=O)cc1 |  |  |  | log(1/C) [3]: 4.07 |
| CS(=O)(=O)OCCN(CCOS(C)(=O)=O)c1ccccc1 |  |  |  | log(1/C) [3]: 3.97 |
| O=C(Oc1ccc(N(CCBr)CCBr)cc1)c1ccccc1 | 5.45 | 5.45 | 3.5 |  |
| Cc1ccccc1C(=O)Oc1ccc(N(CCBr)CCBr)cc1 | 4.96 | 4.96 | 3.5 |  |
| Cc1cccc(C)c1C(=O)Oc1ccc(N(CCBr)CCBr)cc1 | 3.81 | 3.58 | 3.5 |  |
| CCc1ccccc1C(=O)Oc1ccc(N(CCBr)CCBr)cc1 | 4.96 | 4.64 | 3.5 |  |
| CC(C)c1ccccc1C(=O)Oc1ccc(N(CCBr)CCBr)cc1 | 4.39 | 4.66 | 3.5 |  |
| Cc1cccc(C(=O)Oc2ccc(N(CCBr)CCBr)cc2)c1 | 5.18 | 5.16 | 3.5 |  |
| Cc1ccc(C(=O)Oc2ccc(N(CCBr)CCBr)cc2)cc1 | 4.94 | 5.32 | 3.5 |  |
| O=C(Oc1ccc(N(CCBr)CCBr)cc1)c1cccc(Cl)c1 | 4.96 | 5.11 | 3.5 |  |
| O=C(Oc1ccc(N(CCBr)CCBr)cc1)c1ccc(Cl)cc1 | 4.66 | 5.18 | 3.5 |  |
| COc1ccc(C(=O)Oc2ccc(N(CCBr)CCBr)cc2)cc1 | 5.12 | 5.21 | 3.5 |  |
| O=C(Oc1ccc(N(CCBr)CCBr)cc1)c1cccc(C(F)(F)F)c1 | 4.99 | 5.11 | 3.5 |  |
| O=C(Oc1ccc(N(CCBr)CCBr)cc1)c1cccc([N+](=O)[O-])c1 | 4.67 | 5.07 | 3.5 |  |
| O=C(Oc1ccc(N(CCBr)CCBr)cc1)c1ccc([N+](=O)[O-])cc1 | 4.86 | 5.37 | 3.5 |  |
| O=C(Oc1ccc(N(CCCl)CCCl)cc1)c1ccccc1 | 4.86 | 4.06 | 3.5 |  |
| Cc1ccccc1C(=O)Oc1ccc(N(CCCl)CCCl)cc1 | 4.55 | 3.71 | 3.5 |  |
| Cc1ccc(C(=O)Oc2ccc(N(CCCl)CCCl)cc2)cc1 | 4.78 | 4.2 | 3.5 |  |

| SMILES | log1/CED90 [4] | log1/CLD50 [5] | Ratio [6] | other results |
| --- | --- | --- | --- | --- |
| Cc1cccc(C)c1C(=O)Oc1ccc(N(CCCl)CCCl)cc1 | 3.31 | 3.1 | 3.5 |  |
| O=C(Oc1ccc(N(CCCl)CCCl)cc1)c1cccc(Br)c1 | 4.22 | 3.84 | 3.5 |  |
| O=C(Oc1ccc(N(CCCl)CCCl)cc1)c1ccc(Br)cc1 | 4.84 | 4.19 | 3.5 |  |
| O=C(Oc1ccc(N(CCCl)CCCl)cc1)c1cccc(Cl)c1 | 4.55 | 3.95 | 3.5 |  |
| O=C(Oc1ccc(N(CCCl)CCCl)cc1)c1cccc(F)c1 | 4.88 | 4.38 | 3.5 |  |
| O=C(Oc1ccc(N(CCCl)CCCl)cc1)c1ccc(F)cc1 | 4.9 | 4.21 | 3.5 |  |
| COc1ccc(C(=O)Oc2ccc(N(CCCl)CCCl)cc2)cc1 | 4.89 | 4.11 | 3.5 |  |
| O=C(Oc1ccc(N(CCCl)CCCl)cc1)c1cccc([N+](=O)[O-])c1 | 4.81 | 4.4 | 3.5 |  |
| COc1cccc(C(=O)Oc2ccc(N(CCBr)CCBr)cc2)c1 |  | 5.25 | 3.5 |  |
| CCN(CC)c1ccc(OC(=O)c2ccc([N+](=O)[O-])cc2)cc1 |  |  |  | log K [7]: 0.67 |
| CCN(CC)c1ccc(OC(=O)c2cccc([N+](=O)[O-])c2)cc1 |  |  |  | log K [7]: 0.55 |
| CCN(CC)c1ccc(OC(=O)c2ccc(C(F)(F)F)cc2)cc1 |  |  |  | log K [7]: 0.45 |
| CCN(CC)c1ccc(OC(=O)c2cccc(C(F)(F)F)c2)cc1 |  |  |  | log K [7]: 0.34 |
| CCN(CC)c1ccc(OC(=O)c2cccc(Cl)c2)cc1 |  |  |  | log K [7]: 0.32 |
| CCN(CC)c1ccc(OC(=O)c2ccc(Cl)cc2)cc1 |  |  |  | log K [7]: 0.2 |
| CCN(CC)c1ccc(OC(=O)c2ccc(C)cc2)cc1 |  |  |  | log K [7]: -0.41 |
| CCN(CC)c1ccc(OC(=O)c2cccc(C)c2)cc1 |  |  |  | log K [7]: 0.32 |
| CCN(CC)c1ccc(OC(=O)c2ccc(OC)cc2)cc1 |  |  |  | log K [7]: -0.49 |
| CCN(CC)c1ccc(OC(=O)c2cccc(OC)c2)cc1 |  |  |  | log K [7]: 0.15 |
| CCN(CC)c1ccc(OC(=O)c2ccccc2)cc1 |  |  |  | log K [7]: -0.26 |
| CCOC(=O)CCOc1ccccc1N(CCCl)CCCl |  |  |  | log(1/C) [3]: 4.67 |

| SMILES | log1/CED90 [4] | log1/CLD50 [5] | Ratio [6] | other results |
| --- | --- | --- | --- | --- |
| O=C(O)c1ccccc1N(CCO)CCCl |  |  |  | log(1/C) [3]: 4.94 |
| CCC(=O)OCC(Br)CBr (stereo not drawn) |  |  |  | log(1/C) [3]: 5.83 |
| ClCCN(CCCl)c1ccc(/N=C/c2ccccc2)cc1 |  |  |  | log(1/C) [8]: 5.33; log(1/C) [9]: 5 |
| CS(=O)(=O)OCCN(CCOS(C)(=O)=O)c1ccc([N+](=O)[O-])c(Cl)c1 |  |  |  | log(1/C) [3]: 3.02 |
| Cc1ccc(S(=O)(=O)OCCN(CCOS(=O)(=O)c2ccc(C)cc2)c2cccc(F)c2)cc1 |  |  |  | log(1/C) [3]: 3.31 |
| Cc1ccc(S(=O)(=O)OCCN(CCOS(=O)(=O)c2ccc(C)cc2)c2ccccc2)cc1 |  |  |  | log(1/C) [3]: 3.8 |
| CS(=O)(=O)OCCN(CCOS(C)(=O)=O)c1cccc([N+](=O)[O-])c1 |  |  |  | log(1/C) [2]: 3.93 |
| CS(=O)(=O)OCCN(CCOS(C)(=O)=O)c1cccc(C(F)(F)F)c1 |  |  |  | log(1/C) [3]: 4.42 |
| CCOC(=O)c1cccc(N(CCOS(C)(=O)=O)CCOS(C)(=O)=O)c1 |  |  |  | log(1/C) [2]: 4.63 |
| CS(=O)(=O)OCCN(CCOS(C)(=O)=O)c1cccc(Cl)c1 |  |  |  | log(1/C) [2]: 4.85 |
| CCOC(=O)c1cc(N(CCOS(C)(=O)=O)CCOS(C)(=O)=O)ccc1N |  |  |  | log(1/C) [3]: 4.85 |
| Cc1ccc(S(=O)(=O)OCCN(CCOS(=O)(=O)c2ccc(C)cc2)c2ccc(F)cc2)cc1 |  |  |  | log(1/C) [10]: 4.2 |
| CC(=O)Nc1cccc(N(CCOS(C)(=O)=O)CCOS(C)(=O)=O)c1 |  |  |  | log(1/C) [10]: 5.67 |
| CS(=O)(=O)OCCN(CCOS(C)(=O)=O)c1ccc(N=O)c(Cl)c1 |  |  |  | log(1/C) [3]: 6.03 |
| CS(=O)(=O)OCCN(CCOS(C)(=O)=O)c1ccc(N=O)cc1 |  |  |  | log(1/C) [11]: 6.13 |
| Cc1cc(N(CCOS(C)(=O)=O)CCOS(C)(=O)=O)ccc1N=O |  |  |  | log(1/C) [2]: 6.4 |
| CCOC(=O)CCCc1ccc(N(CCCl)CCCl)cc1 |  |  |  | log K [1]: -3.84; log(%) [1]: 1.36 |
| O=C(O)CCCc1ccc(N(CCCl)CCCl)cc1 [CHLORAMBUCIL] | 5.12 | 4.03 |  | log K [1]: -3.65 |
| ClCCN(CCCl)c1ccc2ccccc2c1 [CHLORNAPHAZINE] |  |  |  | log(%) [1]: 1.18 |
| NC(Cc1ccc(N(CCCl)CCCl)cc1)C(=O)O (stereo not drawn) [SARCOLYSIN] |  |  |  | log(1/C) [3]: 4.94; log(1/C) [12]: 5.18; log(1/C) [13]: 5.61 |
